Values quoted from earlier work as cited in patent US20060264388A1, “Method for treating liver cancer by intrahepatic administration of nemorubicin” (priority 2003, published 2006).
Structures can show the parent of a compound that is named as a salt.

Test system: metastatic colorectal cancer
Conditions: after failure of 5-FU leucovorin; cited from earlier work

CCc1c2c(nc3ccc(OC(=O)N4CCC(N5CCCCC5)CC4)cc13)-c1cc3c(c(=O)n1C2)COC(=O)[C@]3(O)CC [Irinotecan hydrochloride trihydrate]
median survival time: approximately 9 months
response rate: 15%
